Measurements published in paper PMC11822212, “High-throughput screening identifies Aurora kinase B as a critical therapeutic target for Merkel cell carcinoma” (Nature Communications, 2025).

Experiments:
CRL-7250 cells = assay: qHTS cell viability (CellTiter-Glo, 72 h; primary screen), control cell line; format: cell-based
HEK293T cells = assay: as above; format: cell-based, human
[1] = system: VN-MCC cell lines (MCC13, MCC26, UISO); assay: qHTS cell viability, VN-MCC cell lines as a group (mean AUC, VN.MCC.avg); format: cell-based, human; settings: for VN-MCC_Avg_AUC: mean AUC of VN-MCC cell lines
MCC13 cells (VN-MCC) = assay: qHTS cell viability (CellTiter-Glo, 72 h; primary and follow-up small molecule screen); format: cell-based, human
MKL-1 cells (VP-MCC) = assay: as above; format: cell-based, human
MKL-2 cells (VP-MCC) = assay: as above; format: cell-based, human
[2] = system: control cell lines (HACAT, HEK293T, CRL-7250, NIH-3T3); assay: qHTS cell viability, control cell lines as a group (mean AUC, Control.avg); format: cell-based; settings: mean AUC of control cell lines
[3] = system: MCC cell lines (WAGA, MKL-1, MKL-2, MCC13, MCC26, UISO); assay: qHTS cell viability, all six MCC cell lines as a group (mean AUC, MCC.avg); format: cell-based, human; settings: mean AUC of six MCC cell lines
[4] = system: six MCC cell lines and four control cell lines; assay: qHTS cell viability, all 10 cell lines screened; format: cell-based
[5] = system: VP-MCC cell lines (WAGA, MKL-1, MKL-2); assay: qHTS cell viability, VP-MCC cell lines as a group (mean AUC, VP.MCC.avg); format: cell-based, human; settings: for VP-MCC_Avg_AUC: mean AUC of VP-MCC cell lines
NIH-3T3 cells = assay: qHTS cell viability (CellTiter-Glo, 72 h; primary screen), control cell line; format: cell-based, mouse
UISO cells (VN-MCC) = assay: qHTS cell viability (CellTiter-Glo, 72 h; primary and follow-up small molecule screen); format: cell-based, human
WAGA cells (VP-MCC) = assay: as above; format: cell-based, human
MCC26 cells (VN-MCC) = assay: as above; format: cell-based, human
HACAT cells = assay: qHTS cell viability (CellTiter-Glo, 72 h; primary screen), control cell line; format: cell-based, human
[6] = MIPE library, 11-point DRC, control cell line, sheet S2E
[7] = MIPE library, Control AUC minus VN-MCC AUC (therapeutic window), sheet S2E
[8] = MIPE library, 11-point DRC, sheet S2E
[9] = MIPE library, Control AUC minus MCC AUC (therapeutic window), sheet S2E
[10] = MIPE library, Control AUC minus VP-MCC AUC (therapeutic window), sheet S2E
[11] = NPC library, qHTS dose-response AUC, CRL7250 control
[12] = NPC library, qHTS dose-response AUC, HEK293T control
[13] = NPC library, therapeutic window: Control avg AUC minus VN-MCC avg AUC
[14] = NPC library, qHTS dose-response AUC, MCC13
[15] = NPC library, qHTS dose-response AUC, MKL1
[16] = NPC library, qHTS dose-response AUC, MKL2
[17] = NPC library, therapeutic window: Control avg AUC minus MCC avg AUC
[18] = NPC library, therapeutic window: Control avg AUC minus VP-MCC avg AUC
[19] = NPC library, qHTS dose-response AUC, NIH3T3 control
[20] = NPC library, qHTS dose-response AUC, UISO
[21] = NPC library, qHTS dose-response AUC, WAGA
[22] = NPC library, qHTS dose-response AUC, MCC26
[23] = NPC library, qHTS dose-response AUC, HACAT control
[24] = NPC library, 8-point DRC, control cell line
[25] = NPC library, 8-point DRC, area under dose-response curve

SMILES	CRL7250_AUC (CRL-7250 cells; [6])	HEK293T_AUC (HEK293T cells; [6])	Control-VN-MCC [1, 7]	VN-MCC_Avg_AUC ([1]; MIPE library, sheet S2E)	MCC13_AUC (MCC13 cells (VN-MCC); [8])	MKL1_AUC (MKL-1 cells (VP-MCC); [8])	MKL2_AUC (MKL-2 cells (VP-MCC); [8])	Control_Avg_AUC ([2]; MIPE library, sheet S2E)	MCC_Avg_AUC ([3]; MIPE library, sheet S2E)	Control-MCC [4, 9]	Control-VP-MCC [5, 10]	VP-MCC_Avg_AUC ([5]; MIPE library, sheet S2E)	NIH3T3_AUC (NIH-3T3 cells; [6])	UISO_AUC (UISO cells (VN-MCC); [8])	WAGA_AUC (WAGA cells (VP-MCC); [8])	MCC26_AUC (MCC26 cells (VN-MCC); [8])	VN-MCC_Avg_AUC ([1]; NPC library)	Control_Avg_AUC ([2]; NPC library)	MCC_Avg_AUC ([3]; NPC library)	VP-MCC_Avg_AUC ([5]; NPC library)	also measured
Cc1[nH]c(/C=C2\C(=O)Nc3ccccc32)c(C)c1CCC(=O)O [Orantinib]	403.945	367.406	1.813	401.946	429.293	273.854	325.675	403.759	343.492	60.2668	118.721	285.038	371.272	326.059	255.586	450.485	–	–	–	–	HACAT_AUC (HACAT cells; [6]): 472.413
C=C1C(=O)[C@]23[C@H](O)[C@H]1CC[C@H]2[C@@]12CO[C@]3(O)[C@@H](O)[C@@H]1C(C)(C)CC[C@@H]2O [Oridonin]	432.105	399.439	-13.4189	435.669	444.187	359.043	318.538	422.25	389.297	32.9531	79.3252	342.925	414.657	376.109	351.193	486.711	–	–	–	–	HACAT_AUC (HACAT cells; [6]): 442.799
CCCCC1C(=O)N(c2ccccc2)N(c2ccc(O)cc2)C1=O (stereo not shown) [Oxyphenbutazone]	–	–	–	–	–	–	–	–	–	–	–	–	–	–	–	–	419.723	418.104	381.43	343.137	CRL7250_AUC (CRL-7250 cells; [11]): 449.026; HEK293T_AUC (HEK293T cells; [12]): 361.816; Control-VN-MCC [1, 13]: -1.619; MCC13_AUC (MCC13 cells (VN-MCC); [14]): 405.464; MKL1_AUC (MKL-1 cells (VP-MCC); [15]): 340.624; MKL2_AUC (MKL-2 cells (VP-MCC); [16]): 317.862; Control-MCC [4, 17]: 36.6743; Control-VP-MCC [5, 18]: 74.9673; NIH3T3_AUC (NIH-3T3 cells; [19]): 433.353; UISO_AUC (UISO cells (VN-MCC); [20]): 403.541; WAGA_AUC (WAGA cells (VP-MCC); [21]): 370.924; MCC26_AUC (MCC26 cells (VN-MCC); [22]): 450.163; HACAT_AUC (HACAT cells; [23]): 428.222
O=S1(=O)OC(c2ccc(O)cc2)(c2ccc(O)cc2)c2ccccc21 [Phenol red]	–	–	–	–	–	–	–	–	–	–	–	–	–	–	–	–	416.577	477.832	431.761	446.945	CRL7250_AUC (CRL-7250 cells; [24]): 462.075; HEK293T_AUC (HEK293T cells; [24]): 472.146; Control-VN-MCC ([1]; NPC library, Control AUC minus VN-MCC AUC (therapeutic window)): 61.2549; MCC13_AUC (MCC13 cells (VN-MCC); [25]): 422.151; MKL1_AUC (MKL-1 cells (VP-MCC); [25]): 429.88; MKL2_AUC (MKL-2 cells (VP-MCC); [25]): 451.959; Control-MCC ([4]; NPC library, Control AUC minus MCC AUC (therapeutic window)): 46.071; Control-VP-MCC ([5]; NPC library, Control AUC minus VP-MCC AUC (therapeutic window)): 30.8871; NIH3T3_AUC (NIH-3T3 cells; [24]): 484.742; UISO_AUC (UISO cells (VN-MCC); [25]): 423.512; WAGA_AUC (WAGA cells (VP-MCC); [25]): 458.996; MCC26_AUC (MCC26 cells (VN-MCC); [25]): 404.069; HACAT_AUC (HACAT cells; [24]): 492.366
O=C(CCCCCCCCC#CI)Oc1ccccc1 [Phenyl 11-iodo-10-undecynoate]	–	–	–	–	–	–	–	–	–	–	–	–	–	–	–	–	450.746	487.017	428.115	405.485	CRL7250_AUC (CRL-7250 cells; [11]): 487.776; HEK293T_AUC (HEK293T cells; [12]): 475.205; Control-VN-MCC [1, 13]: 36.2708; MCC13_AUC (MCC13 cells (VN-MCC); [14]): 470.776; MKL1_AUC (MKL-1 cells (VP-MCC); [15]): 407.973; MKL2_AUC (MKL-2 cells (VP-MCC); [16]): 402.29; Control-MCC [4, 17]: 58.9016; Control-VP-MCC [5, 18]: 81.5325; NIH3T3_AUC (NIH-3T3 cells; [19]): 495.803; UISO_AUC (UISO cells (VN-MCC); [20]): 437.546; WAGA_AUC (WAGA cells (VP-MCC); [21]): 406.191; MCC26_AUC (MCC26 cells (VN-MCC); [22]): 443.917; HACAT_AUC (HACAT cells; [23]): 489.285
